According to patent US20220395472A1 (Dermavant Sciences GmbH, priority 2021, published 2022):
“And” between values parts separate entries of the source, which are not always exact repeats. Identical values can stand only once. Like-named read-outs stand apart in the source and are kept apart here.

Assays:
[1] = Preclinical repeat-dose systemic exposure; type: in vivo
Source text: (§1) The reason for the decrease in plasma concentrations over time is unknown. Without wishing to be bound by theory, as the skin heals, there may be less penetration of the drug through the stratum corneum and into the systemic circulation since the barrier is restored.

[2] = tested on: adult and adolescent subjects with AD; settings: cited from earlier work
[3] = tested on: mild to severe plaque psoriasis; experiment: Treat-to-target pooled analysis of the PSOARING trials; type: in vivo, human
Source text: In addition to a % BSA of ≤1.0% and PASI75, pooled analyses explored more aggressive targets, including the proportion of patients with % BSA of ≤0.5%, or an absolute PASI score of ≤1, ≤2 or ≤3. […] Safety analyses are based on all patients who received tapinarof in the PSOARING trials.

[4] = Maximal use study with serial PK sampling: plasma concentrations; type: in vivo, human; settings: between Days 1 and 29
Source text: (FIG. 2). This decline is further supported by serial PK data collected from previous clinical studies over 28 days of dosing and over 21 days of dosing.

[5] = In vitro studies in human skin microsomes: metabolic turnover; type: in vitro ADME
Source text: as §1

[6] = tested on: adults with plaque psoriasis; experiment: Long-term extension study (PSOARING 3): PASI score, PASI75, PASI90; type: in vivo, human
Source text: The PASI scoring system is a widely used, standard, clinical tool for assessing the severity of psoriasis that takes into account the overall severity of erythema (redness), induration (plaque thickness), scale, and the extent of % BSA affected with psoriasis. The 3 clinical signs are each graded on a 5 point scale (0 to 4) and the % BSA affected is scored on a 7 point scale (0 to 6) for each of the 4 specified body regions (head, upper extremities, trunk, and lower extremities). Individual scores are multiplied by a weighted factor for each body region; the sum of these scores gives the overall PASI score. Higher scores indicate more severe disease. PASI is a static assessment made without reference to previous scores. Details on PASI calculation can be found in Appendix 2 of the protocol.

plaque psoriasis = experiment: 12-week phase 2b trial in psoriasis; type: in vivo, human; settings: cream 1%; 12-week treatment
Source text: As mentioned, tapinarof is a novel therapeutic aryl hydrocarbon receptor modulating agent (TAMA) in clinical development for the topical treatment of psoriasis and atopic dermatitis. […] AhR modulates T cell responses both through intrinsic control of T cell subset differentiation and via controlling the function of antigen presenting cells. In addition, AhR signaling promotes the conversion of Th17 cells to type 1 regulatory T cells. Aberrant immune responses underpin the pathogenesis of both PsO and AD, and the wide expression of AhR in immune cells makes it an attractive target given the essential role of AhR in regulating inflammatory responses and skin homeostasis. […] These clinical data support the role of AhR in skin immune homeostasis. Given the multitude of AhR-dependent immunoregulatory mechanisms, AhR is an attractive target for novel immunotherapies with the potential to extend therapeutic efficacy following treatment discontinuation; this may provide a unique clinical benefit to patients.
Treatment-emergent adverse events (TEAEs) were reported with a higher frequency in the tapinarof groups than in the vehicle groups. […]

[7] = tested on: adults with plaque psoriasis; experiment: Long-term extension study (PSOARING 3): patient-reported and investigator-assessed Local Tolerability Scale; type: in vivo, human; settings: all anatomic regions incl. sensitive areas; 40 weeks
Protocol: Tolerability is defined as the local tolerability using a patient-reported 5-point scale for burning/stinging and itching, and an investigator-assessed 5-point scale for dryness, erythema, and peeling.
Tolerability was assessed subjectively via subject and objectively via Investigator throughout the 40 weeks of the study. The patient-reported local tolerability scale utilized for self-reported tolerability assessment is shown in Table 20, while the investigator-assessed local tolerability scale utilized is shown in Table 21.

[8] = Week 16, LOCF, Tapinarof (Pivotal) group
[9] = Week 16, LOCF, Vehicle (Pivotal) group
[10] = Week 16, OC, Tapinarof (Pivotal) group
[11] = Week 16, OC, Vehicle (Pivotal) group
[12] = Week 16, Observed Cases, Overall
[13] = Week 16, Observed Cases, Tapinarof (Pivotal) group
[14] = Week 16, Observed Cases, Vehicle (Pivotal) group
[15] = Week 40, LOCF, Tapinarof (Pivotal) group
[16] = Week 40, LOCF, Vehicle (Pivotal) group
[17] = Week 40, OC, Tapinarof (Pivotal) group
[18] = Week 40, OC, Vehicle (Pivotal) group
[19] = Week 40, Observed Cases, Tapinarof (Pivotal) group
[20] = Week 40, Observed Cases, Vehicle (Pivotal) group

## CC(C)c1c(O)cc(/C=C/c2ccccc2)cc1O [Tapinarof, 3,5-Dihydroxy-4-isopropyl-trans-stilbene]
[1]; minipigs
  systemic exposures with repeat dosing compared to single doses: no changes in systemic exposures
[1]; rats
  systemic exposures with repeat dosing compared to single doses: no changes in systemic exposures
[2]; 1% BID arm
  reported TEAEs: 70%
[2]; 1% BID
  proportion subjects with ≥75% improvement in EASI: 60%
[2]; 1% QD arm, Week 8
  Treatment success for IGA (clear or almost clear with minimum 2-point improvement): 49%
  proportion subjects with ≥75% improvement in EASI: 57%
[2]; 1% QD arm, Week 12
  Treatment success for IGA (clear or almost clear with minimum 2-point improvement): 46%
  proportion subjects with ≥75% improvement in EASI: 57%
[2]; 1% QD arm
  reported TEAEs: 54%
[2]; 1% QD
  proportion subjects with ≥75% improvement in EASI: 51%
[3]; 915 patients, baseline PGA≥2
  KM estimated median time to target % BSA≤0.5%: 199 days
  mean time to target PASI≤3: 58 days
  median time to target % BSA≤1.0%: 120 days
  median time to target PASI≤1: 185 days
  median time to target PASI≤2: 87 days
  patients who achieved % BSA≤0.5%: 49.7%
  patients who achieved % BSA≤1.0%: 61.3% and 61%
  patients who achieved PASI≤1: 50.3%
  patients who achieved PASI≤2: 66.9% and 67%
  patients who achieved PASI≤3: 75.0%
[3]; within ˜3 months
  patients who achieved ≤1% BSA affected: 40%
[4]
  decline in plasma concentrations: 10 fold
[5]
  metabolic turnover: no metabolic turnover
[6]; Week 16, LOCF, Overall, listed as tapinarof
  PASI75 Responder: 21.3%
[6]; [8]
  PASI75 Non-Responder: 413/491 (84.1) %
  PASI75 Responder: 78/491 (15.9) %
  Subjects with reduction of ≥90% from Baseline in PASI (PASI90): 13.0%
  mean (SD) PASI score: 2.74 (3.324)
[6]; Week 16, LOCF, Tapinarof (Pivotal) group, listed as tapinarof
  PASI75 Responder: 15.9%
[6]; [9]
  PASI75 Non-Responder: 170/250 (68.0) %
  PASI75 Responder: 80/250 (32.0) %
  Subjects with reduction of ≥90% from Baseline in PASI (PASI90): 15.2%
  mean (SD) PASI score: 3.47 (3.794)
[6]; Week 16, LOCF, Vehicle (Pivotal) group, listed as tapinarof
  PASI75 Responder: 32.0%
[6]; [10]
  Subjects with reduction of ≥90% from Baseline in PASI (PASI90): 13.6%
  mean (SD) PASI score: 2.38 (2.652)
[6]; [11]
  Subjects with reduction of ≥90% from Baseline in PASI (PASI90): 15.9%
  mean (SD) PASI score: 2.95 (3.020)
[6]; [12]
  PASI75 Non-Responder: 478/619 (77.2) %
  PASI75 Responder: 141/619 (22.8) %
[6]; Week 16, Observed Cases, Overall, listed as tapinarof
  PASI75 Responder: 22.8%
[6]; [13]
  PASI75 Non-Responder: 342/412 (83.0) %
  PASI75 Responder: 70/412 (17.0) %
[6]; Week 16, Observed Cases, Tapinarof (Pivotal) group, listed as tapinarof
  PASI75 Responder: 17.0%
[6]; [14]
  PASI75 Non-Responder: 136/207 (65.7) %
  PASI75 Responder: 71/207 (34.3) %
[6]; Week 16, Observed Cases, Vehicle (Pivotal) group, listed as tapinarof
  PASI75 Responder: 34.3%
[6]; Week 16 LOCF, Overall
  PASI75 Non-Responder: 583/741 (78.7) %
  PASI75 Responder: 158/741 (21.3) %
  Subjects with reduction of ≥90% from Baseline in PASI (PASI90): 13.8%
  mean (SD) PASI score: 2.99 (3.504)
[6]; Week 16 OC, Overall
  Subjects with reduction of ≥90% from Baseline in PASI (PASI90): 14.4%
  mean (SD) PASI score: 2.57 (2.791)
[6]; Week 40, LOCF, Overall, listed as tapinarof
  PASI75 Responder: 25.3%
[6]; [15]
  PASI75 Non-Responder: 409/492 (83.1) %
  Subjects with reduction of ≥90% from Baseline in PASI (PASI90): 11.2%
  mean (SD) PASI score: 2.80 (3.443)
[6]; Week 40, LOCF, Tapinarof (Pivotal) group, listed as tapinarof
  PASI75 Responder: 16.9%
[6]; [16]
  PASI75 Non-Responder: 146/251 (58.2) %
  PASI75 Responder: 105/251 (41.8) %
  Subjects with reduction of ≥90% from Baseline in PASI (PASI90): 20.7%
  mean (SD) PASI score: 3.28 (3.937)
[6]; Week 40, LOCF, Vehicle (Pivotal) group, listed as tapinarof
  PASI75 Responder: 41.8%
[6]; [17]
  Subjects with reduction of ≥90% from Baseline in PASI (PASI90): 13.1%
  mean (SD) PASI score: 2.38 (2.672)
[6]; [18]
  Subjects with reduction of ≥90% from Baseline in PASI (PASI90): 27.4%
  mean (SD) PASI score: 2.31 (3.008)
[6]; Week 40, Observed Cases, Overall
  PASI75 Responder: 30.9%
[6]; [19]
  PASI75 Non-Responder: 186/236 (78.8) %
  PASI75 Responder: 50/236 (21.2) %
[6]; Week 40, Observed Cases, Tapinarof (Pivotal) group, listed as tapinarof
  PASI75 Responder: 21.2%
[6]; [20]
  PASI75 Non-Responder: 55/113 (48.7) %
  PASI75 Responder: 58/113 (51.3) %
[6]; Week 40, Observed Cases, Vehicle (Pivotal) group, listed as tapinarof
  PASI75 Responder: 51.3%
[6]; Week 40 LOCF, Overall
  PASI75 Non-Responder: 555/743 (74.7) %
  PASI75 Responder: 188/743 (25.3) %
  Subjects with reduction of ≥90% from Baseline in PASI (PASI90): 14.4%
  mean (SD) PASI score: 2.97 (3.622)
[6]; Week 40 OC, Overall
  Subjects with reduction of ≥90% from Baseline in PASI (PASI90): 17.8%
  mean (SD) PASI score: 2.36 (2.781)
Plaque psoriasis
  time efficacy was maintained after treatment cessation: 4 weeks
[7]
  local tolerability (patient and investigator assessments): well-tolerated
